Assay results published in article PMC8588511, “Chromane Derivatives from Underground Parts of Iris tenuifolia and Their In Vitro Antimicrobial, Cytotoxicity and Antiproliferative Evaluation” (Molecules, 2021).
“Also recorded” adds a separate entry of the source. Read-outs that look alike come from different tables or passages of the source.

Assays:
[1] = tested on: human acute monocytic leukemia cells (THP-1); experiment: antiproliferation assay (CellTiter-Blue); assay type: cell-based; conditions: for GI50: THP-1, 72 h, read-out: Antiproliferative Effect, GI50 (CI 95%)
Procedure: (§1) In this assay, K-562 (DSM ACC 10), THP-1 (DSM ACC 16), and HeLa (DSM ACC 57) were maintained in Roswell Park Memorial Institute (RPMI) 1640 medium (Cambrex 12-167F) while HUVEC (ATCC CRL-1730) and A549 (DSM ACC 107) were cultured in Dulbecco’s Modified Eagle’s Medium (DMEM) (Cambrex 12-614F). Cells that were grown in the appropriate cell culture medium were supplemented with 10 mL/L ultraglutamine 1 (Cambrex 17-605E/U1), 550 µL/L (50 mg/mL) gentamicin sulfate (Cambrex 17-518Z), and 10% heat inactivated fetal bovine serum (GIBCO Life Technologies 10270-106) at 37 °C. The tested compounds were dissolved in DMSO, and the cells were seeded in 96-well plates at a density of 1 × 10^4 cells/well. As for the antiproliferative effect of the compounds, the cells were incubated for 72 h, and GI50 values were evaluated to be defined as the concentration causing 50% inhibition of proliferation compared to the untreated control. With regard to the cytotoxic assay, HeLa cells were pre-incubated for 48 h without the test compounds. Then, the cells were exposed with different concentrations of compounds and incubated for 72 h. After that, the adherent HeLa cells were fixed by glutaraldehyde and stained with a 0.05% solutions of methylene blue (SERVA 29198) for 15 min. CC50 was evaluated to be defined as the concentration required for the death of 50% of the cell monolayer as compared to control groups. Under our experimental conditions, the optical density measured from the CellTiter-Blue reagent and methylene blue assay is proportional to the number of viable cells. In this experiment, absorbances were measured at 570 nm against the reference wavelength of 600 nm (CellTiter-Blue assay) and at 660 nm (methylene blue assay). Doxorubicin (Adriamycin®) and imatinib (Gleevec®) were used as positive controls for HUVEC, K-562, and HeLa cells. A repeat determination has been conducted in all experiments, and four replicates were assayed. The calculations of the different values of GI50 and CC50 were performed with software Magellan version 3.00 (Tecan Trading AG, Maennedorf, Switzerland).

[2] = tested on: human chronic myeloid leukemia cells (K-562); experiment: antiproliferation assay (CellTiter-Blue); assay type: cell-based; conditions: for GI50: K-562, 72 h, read-out: Antiproliferative Effect, GI50 (CI 95%)
Procedure: as §1

[3] = tested on: human lung carcinoma cells (A549); experiment: antiproliferation assay (CellTiter-Blue); assay type: cell-based; conditions: A549, 72 h, read-out: Antiproliferative Effect, GI50 (CI 95%)
Procedure: as §1

[4] = tested on: human umbilical vein endothelial cells (HUVEC); experiment: antiproliferation assay (CellTiter-Blue); assay type: cell-based; conditions: 72 h, read-out: Antiproliferative Effect, GI50 (CI 95%)
Procedure: as §1

[5] = tested on: human cervix carcinoma cells (HeLa); experiment: cytotoxicity assay (methylene blue); assay type: cell-based
Procedure: as §1

[6] = tested on: Candida albicans (C.alb.H8); experiment: agar diffusion antifungal assay; assay type: cell-based; conditions: for zone of inhibition at 1000 µg/mL: read-out: Inhibition Zone of Test Microorganism; for antifungal activity in words: Candida albicans, agar diffusion
Procedure: (§2) Compounds 1, 2, 3, 5, 9, and 10 were tested for their antimicrobial activities against S. aureus (JMRC:STI 10760), B. subtilis (JMRC:STI 10880), S. aureus MRSA (JMRC: ST 33793) E. faecalis VRE (JMRC: ST 33700), E. coli (JMRC:ST 33699), P. aeruginosa (JMRC:ST 33771), P. aeruginosa (JMRC:ST 33772), M. vaccae (JMRC:STI 10670), S. salmonicolor (JMRC:ST 35974), C. albicans (JMRC:STI 25000), and P. notatum (JMRC:STI 50164)) using agar diffusion assay as previously published. Strains were obtained from the Jena Microbial Resource Collection (JMRC). The bacteria were cultivated on standard I nutrient agar in Petri dishes at 37 °C. Antifungal bioassays were conducted at 30 °C using the basidiomycetous yeast S. salmonicolor and the filamentous ascomycete P. notatum, which were cultivated on malt agar, and the ascomycetous yeast C. albicans, which was cultivated on yeast morphology agar. After inoculation of the test organisms, a disc (9 mm in diameter) was removed from the center of the Petri dish and 50 μL of the test solution (1 mg/mL in DMSO) was added to the cavity. After 18 h of incubation, the inhibiting areola were measured and documented as diameters in mm. Ciprofloxacin (5 µg/mL in deionized water) and amphotericin B (10 µg/mL in DMSO/MeOH 1:1) were used as reference substances against bacterial and fungal strains, respectively.

[7] = tested on: Penicillium notatum (JP36 P1); experiment: agar diffusion antifungal assay; assay type: cell-based
Procedure: as §2

[8] = tested on: Sporobolomyces salmonicolor (549 H4); experiment: agar diffusion antifungal assay; assay type: cell-based; conditions: 50 μL of 1 mg/mL in DMSO, 18 h, 30 °C, amphotericin B 10 µg/mL
Procedure: as §2

[9] = tested on: Bacillus subtilis (6633 B1); experiment: agar diffusion antimicrobial assay; assay type: cell-based; conditions: Bacillus subtilis (6633 B1), 50 μL of 1 mg/mL in DMSO, 18 h, ciprofloxacin 5 µg/mL; for zone of inhibition at 1000 µg/mL: read-out: Inhibition Zone of Test Microorganism
Procedure: as §2

[10] = tested on: Enterococcus faecalis (VRE 1528 R10); experiment: agar diffusion antimicrobial assay; assay type: cell-based; conditions: Enterococcus faecalis (VRE 1528 R10), 50 μL of 1 mg/mL in DMSO, 18 h, ciprofloxacin 5 µg/mL; for zone of inhibition at 1000 µg/mL: read-out: Inhibition Zone of Test Microorganism
Procedure: as §2

[11] = tested on: Escherichia coli (458 B4); experiment: agar diffusion antimicrobial assay; assay type: cell-based; conditions: 50 μL of 1 mg/mL in DMSO, 18 h, ciprofloxacin 5 µg/mL
Procedure: as §2

[12] = tested on: Mycobacterium vaccae (10670 M4); experiment: agar diffusion antimicrobial assay; assay type: cell-based; conditions: Mycobacterium vaccae (10670 M4), 50 μL of 1 mg/mL in DMSO, 18 h, ciprofloxacin 5 µg/mL; for zone of inhibition at 1000 µg/mL: Mycolicibacterium vaccae, read-out: Inhibition Zone of Test Microorganism
Procedure: as §2

[13] = tested on: Staphylococcus aureus (511 B3); experiment: agar diffusion antimicrobial assay; assay type: cell-based; conditions: 50 μL of 1 mg/mL in DMSO, 18 h, ciprofloxacin 5 µg/mL
Procedure: as §2

[14] = tested on: Staphylococcus aureus (MRSA 134/94 R9); experiment: agar diffusion antimicrobial assay; assay type: cell-based; conditions: 50 μL of 1 mg/mL in DMSO, 18 h, ciprofloxacin 5 µg/mL
Procedure: as §2

[15] = tested on: Pseudomonas aeruginosa (K799/61 B9); experiment: agar diffusion antimicrobial assay; assay type: cell-based; conditions: 18 h
Procedure: as §2

[16] = tested on: Pseudomonas aeruginosa (SG137 B7); experiment: agar diffusion antimicrobial assay; assay type: cell-based; conditions: 50 μL of 1 mg/mL in DMSO, 18 h, ciprofloxacin 5 µg/mL
Procedure: as §2

[17] = cytotoxicity assay (methylene blue); assay type: cell-based, human; conditions: human, HeLa cells (DSM ACC 57); HeLa, 72 h; read-out: Cytotoxicity CC50 (CI 95%)
Procedure: as §1

[18] = tested on: three fungi and eight bacterial strains; experiment: agar diffusion assay, whole panel; assay type: cell-based; conditions: eleven microorganisms
Procedure: as §2

[19] = Candida albicans (C.alb.H8), 50 μL of 1 mg/mL in DMSO, 18 h, 30 °C, amphotericin B 10 µg/mL
[20] = read-out: Inhibition Zone of Test Microorganism

Molecule	Inhibition Zone of Test Microorganism [14]	zone of inhibition at 1000 µg/mL [9] [mm]	zone of inhibition at 1000 µg/mL [10] [mm]	zone of inhibition at 1000 µg/mL [12] [mm]	Inhibition Zone of Test Microorganism [16]	zone of inhibition at 1000 µg/mL [6, 19] [mm]	antifungal activity in words [6]	GI50 ([1]; Homo sapiens) [µM]	GI50 ([2]; Homo sapiens, K562) [µM]	GI50 ([3]; Homo sapiens) [µM]	GI50 ([4]; Homo sapiens) [µM]	CC50 at 72 h [17] [µM]	antimicrobial activity over the panel in words [18]	other results
3,5,3′-Trihydroxy-7,2′-dimethoxyflavonol [Compound 11]														GI50 [1]: 50.6 µM; GI50 [2]: 71.5 µM; GI50 [3]: 67 µM; GI50 [4]: > 100 µM; CC50 [5]: > 100 µM
C[C@@H]1[C@H](O)[C@@H](C)/C=C/C=C/C=C/C=C/C=C/C=C/C=C/[C@H](O[C@@H]2O[C@H](C)[C@@H](O)[C@H](N)[C@@H]2O)C[C@@H]2O[C@](O)(C[C@@H](O)C[C@@H](O)[C@H](O)CC[C@@H](O)C[C@@H](O)CC(=O)O[C@H]1C)C[C@H](O)[C@H]2C(=O)O [Amphotericin B, reference compound]														Inhibition Zone of Test Microorganism [6, 19]: 20 mm; Inhibition Zone of Test Microorganism ([7]; Penicillium notatum (JP36 P1), 50 μL of 1 mg/mL in DMSO, 18 h, 30 °C, amphotericin B 10 µg/mL): 19 mm; Inhibition Zone of Test Microorganism [8]: 19 mm
O=C(O)c1cn(C2CC2)c2cc(N3CCNCC3)c(F)cc2c1=O [Ciprofloxacin, reference compound]	-													Inhibition Zone of Test Microorganism [9]: 29 mm; Inhibition Zone of Test Microorganism [10]: 16 mm; Inhibition Zone of Test Microorganism [11]: 32 mm; Inhibition Zone of Test Microorganism [12]: 22 mm; Inhibition Zone of Test Microorganism [13]: 19 mm
O=C1CC(c2cccc(O)c2O)Oc2cc3c(c(O)c21)OCO3 (centres unmarked) [Compound 5, 5,2′,3′-Trihydroxy-6,7-methylenedioxyflavanone]		13	13	20	-	13	weak activity	16.5	44.3	> 100	69	> 100	most active; also recorded: broad activity against eight microorganisms out of eleven	zone of inhibition at 1000 µg/mL ([15]; Pseudomonas aeruginosa, read-out: Inhibition Zone of Test Microorganism): 17 mm; zone of inhibition at 1000 µg/mL [13, 20]: 15 mm; zone of inhibition at 1000 µg/mL [14, 20]: 13 mm; zone of inhibition at 1000 µg/mL ([7]; Penicillium chrysogenum, Penicillium notatum (JP36 P1), 50 μL of 1 mg/mL in DMSO, 18 h, 30 °C, amphotericin B 10 µg/mL, read-out: Inhibition Zone of Test Microorganism): 16 mm; antifungal activity in words ([7]; Penicillium notatum, agar diffusion): moderate activity
COc1cc2occ(-c3cccc(O)c3O)c(=O)c2c(O)c1OC [Compound 10, 5,2′,3′-Trihydroxy-6,7-dimethoxyisoflavone]	-	13	13	16	-	13	weak activity	9.1	7.6	98.8	35.8	> 100	most active	Inhibition Zone of Test Microorganism ([15]; Pseudomonas aeruginosa (K799/61 B9), 50 μL of 1 mg/mL in DMSO, ciprofloxacin 5 µg/mL): -; antiproliferative activity in words ([1]; THP-1): active; antiproliferative activity in words ([2]; K-562): active
